These results are taken from PubChem BioAssay AID2305 (GlaxoSmithKline (GSK), 2010).

The test system of the experiment is P. falciparum 3D7 growth, pLDH absorbance. As to the kind of experiment: P. falciparum 3D7 growth inhibition, dose response, strain 3D7 (AID 2305).

pIC50: −log10 of the molar value. Several values for one entry are separate records, joined by “and”; a condition that tells them apart may be missing. Equal values may be shown once.

`COc1ccc(NC(=O)Nc2ccc(-c3ccncc3)c(C(F)(F)F)c2)cc1N1CCN(C)CC1` showed a pIC50 of 6.12.
The figure for `Cc1ccc2nc(C)cc(NN=Cc3ccc(Cl)cc3)c2c1` is 6.00.
The figure for `COc1ccc(CNc2nc(NCCc3ccccc3)c3cc(OC)c(OC)cc3n2)cc1OC` is 6.74; for `CCOc1cc(CC)ccc1C1CCN(CCN2CCC(NC(=O)c3ccc(-c4ccc(C#N)cc4)cc3)CC2)CC1` it is 6.21.
The figure for `CCOC(=O)[C@H](Cc1cc([N+](=O)[O-])c(Oc2ccc(OC)c(Cc3ccc(OC)c(C(C)C)c3)c2)c([N+](=O)[O-])c1)NC(=O)C(F)(F)F` is 6.01; for `CCn1c2ccccc2c2cc(Cc3cnc(N)nc3N)ccc21` it is 6.66.
`O=C(Nc1ccc(C(=O)Nc2ccc(C3=NCCN3)cc2)cc1)Nc1ccc(C2=NCCN2)cc1` had a pIC50 of 6.74.
Consider `O=C(NCCCCCN1CCC(c2c[nH]c3ccccc23)CC1)Nc1ccc(Cl)cc1Cl`, for which the pIC50 is 6.14.
The figure for `Cc1cccc2[nH]c(-c3ccc(-c4cccc(NC(=O)COc5ccccc5C(N)=O)c4)s3)nc12` is 6.14.
With `C=C1C[C@@H](n2cnc3c(NC(=O)c4ccccc4)ncnc32)[C@@H](F)[C@@H]1OC(c1ccccc1)(c1ccccc1)c1ccccc1` the figure was 6.85.
The compound `COc1ccc2nccc([C@@H](O)CN3CCC(NCc4cc5ccccn5n4)CC3)c2c1` showed a pIC50 of 5.80.
With `Cc1ccc(NC(=O)c2cccc(C#N)c2)cc1-c1ccc(C(=O)Nc2ccncc2)cc1`, the pIC50 was 6.16.
With `CCCC/C=C(\Cl)c1ccc(O)c2c1C[C@H]1C[C@H]3[C@H](N(C)C)C(=O)C(C(N)=O)=C(O)[C@@]3(O)C(=O)C1=C2O` the figure was 5.96.
The figure for `CCCCCCCN1CC[C@@H](C[C@H](N)Cc2ccnc3ccc(OC)cc23)[C@@H](CC)C1` is 5.97; for `CC(=O)N1Cc2ccccc2C1=O` it is 6.28; for `CNCCNCc1cccc(-c2ccc(-c3nc4ccccc4[nH]3)s2)c1` it is 6.08.
The figure for `COc1cc(NC(=O)N2CCc3ccc(OCCC4CCCN4C)cc32)cc(C(F)(F)F)c1` (stereo not given) is 6.15; for `Cc1oc(-c2cccc(Oc3ccccc3)c2)nc1CN(Cc1cnn(C)c1)C(C)C` it is 5.96.
On to `C=CCOc1ccccc1CNCC(O)c1cccc(C(F)(F)F)c1` (stereo not given), for which the pIC50 is 6.08.
With `CCOc1cc(C)ccc1C1CCN(CCCCNC(=O)c2coc(-c3ccc(Cl)cc3)c2)CC1` the figure was 6.04.
In turn, `COc1ccc(C=CC(=O)NC(=O)c2ccccc2OC(=O)c2ccccc2)cc1OC` gave a pIC50 of 6.04.
The figure for `CC(C)c1cccc(C(C)C)c1NC(=O)NNC(=O)c1ccc(CCN2CCC(c3nc(COCC(F)(F)F)c(-c4ccc(F)cc4)o3)CC2)cc1` is 5.96; for `CCCn1c(Sc2ccc(C#N)c([N+](=O)[O-])c2)nnc1-c1ccc(Cl)cc1` it is 6.27; for `c1ccc(CCNCc2ccc(-c3ccc(CNC4CCN(Cc5ccccc5)CC4)cc3)nc2)cc1` it is 6.35.
With `NC1=NC(c2ccccc2)(c2ccccc2)C(=O)N1CC=Cc1ccccc1` the figure was 6.22; with `CCCc1cc(N2CCC(N(CC)CC)C2)nc(Nc2ccc(OC)cc2)n1` (stereo not given), 6.77.
With `N=C(N)c1ccc(Oc2ccc(C(=N)N)cc2)cc1` the figure was 6.49; with `COc1ccc2nccc([C@@H](O)CN3CCC(NC(=O)C(c4cc5ccccc5s4)N4CCN(c5ccccc5OC)CC4)CC3)c2c1` (stereo not given in full), 6.80.
Consider `COc1ccc(-c2ccc(NC(=O)c3ccc(C#N)cc3)cc2)cc1CN(C)CCN(C)C`, for which the pIC50 is 6.18.
The figure for `CCCc1ccc(C(=O)N2[C@@H](c3nccs3)[C@@H](C(N)=O)C[C@@]2(CC(C)C)C(=O)O)cc1` is 6.80; for `CC(=O)Nc1nc(C(=O)Nc2ccc(-c3cccc(-c4nc5ccccc5[nH]4)c3)cc2)cs1` it is 6.26; for `COc1cccc(CN2CCCC(COC(c3ccc(F)cc3)c3ccc(F)cc3)C2)c1O` (stereo not given) it is 6.48.
With `CC(Cc1ccc(-c2nc3ccccc3[nH]2)cc1)NCC(O)c1cccc(C(F)(F)F)c1` (stereo not given) the figure was 6.46; with `Cc1nc2c(=O)sc3ccccc3c2n1Cc1ccccc1`, 6.06; with `CC(=O)N(C)c1ccc(C(=O)Nc2cccc(-c3cccc(-c4nc5c(C)cccc5[nH]4)c3)c2)cc1`, 6.21.
With `Cc1cc(-c2ccc3c(c2)CCN(CCC2CCC(NC(=O)/C=C/c4cccc(F)c4)CC2)CC3)on1` (stereo not given) the figure was 6.12; with `CN(C)CCNc1nccc(N2CCc3ncnc(Nc4ccc(OCc5cccc(F)c5)c(Cl)c4)c3C2)n1`, 6.85.
In turn, `COc1cc(CS(C)(=O)=O)ccc1Nc1nccc(-c2c(-c3cccc(NC(=O)c4c(F)cccc4F)c3)nn3ccccc23)n1` gave a pIC50 of 6.01.
With `CC(Cc1ccc([N+](=O)[O-])cc1)NCC(O)c1cccc(C(F)(F)F)c1` (stereo not given) the figure was 6.05; with `Cc1nc(-c2cccc(NCc3ccccc3)c2)[nH]c1C`, 6.07.
With `CC(C)CN1CCN(CCNc2c3ccccc3nc3ccccc23)CC1`, the negative-log IC50 (pIC50) was 6.09.
With `Cc1cc(NCCC(=O)NCc2cccc(F)c2)nc(NCCc2ccc(F)cc2)n1` the figure was 5.76; with `Cc1c(C(=O)N2CCc3cc4nccc(N5CCN6CCC[C@H]6C5)c4cc32)cnn1-c1ccc(C#N)cc1`, 6.00.
The figure for `CN1CCC(C(=O)Nc2ccc(-c3cccc(-c4nc5ccc(C(F)(F)F)cc5[nH]4)c3)cc2)CC1` is 6.24.
The figure for `N#Cc1ccc2[nH]cc(CN3CCC4(CC3)CN(CCNCc3ccccc3)C(=O)CO4)c2c1` is 6.12.
The compound `Cn1cnc2c(Nc3ccncc3)nc(-c3ccc4c(c3)OCO4)nc21` had a pIC50 of 5.95.
For the compound `N#Cc1cccc(C(=O)Nc2cccc(-c3ccc(C(=O)NCCCN4CCOCC4)cc3)c2)c1`, the pIC50 was 6.12.
With `O=C(Cc1cc(F)cc(F)c1)NC1CCN(c2ccnc3cc(Cl)ccc23)C1` (stereo not given) the figure was 6.60; with `CC(C)(CNCc1ccccc1)c1nc(-c2ccc(Cl)c(O)c2)c(-c2ccncc2)[nH]1`, 6.27; with `COc1ccc(-c2ccccc2)cc1NC(=S)NC1CCC(CN2CCC(c3c[nH]c4ccccc34)CC2)CC1` (stereo not given), 6.19 and 6.13.
The figure for `CC(C)n1ncc2c(C(=O)N3CCCC4CCCCC43)cc(C3CC3)nc21` (stereo not given) is 6.17; for `CC(C)(C)c1cc(C(=O)N2CCN(c3nccnc3C#N)CC2)n(Cc2ccccc2)n1` it is 6.12.
With `Cc1cccc2[nH]c(-c3ccc(-c4ccc(CNCCCN5CCCC5=O)cc4)s3)nc12`, the pIC50 was 6.12.
The figure for `COc1ccc2ncc(C#N)c(CCN3CCC(NCc4ccc5c(n4)NC(=O)CS5)CC3)c2n1` is 6.08.
With `CCCCCCN=C(N)c1ccc(OCCCCCOc2ccc(C(N)=NCCCCCC)cc2)cc1` the figure was 6.51; with `COc1ccc2nccc([C@@H](O)CN3CCC(NCc4cnc5snnc5c4)C(F)C3)c2c1` (stereo not given in full), 5.87.
`CC(C)(C)c1ccc(CNC(=O)c2ccc(CNC3CCC(N)CC3)s2)cc1` (stereo not given) showed a pIC50 of 6.28.
`CC(C)(C)c1ccc2nc(-c3ccc(/C=C/C(=O)NCc4ccc(Cl)c(Cl)c4)cc3)[nH]c2c1` showed a pIC50 of 7.40.
On to `O=C(Nc1ccc2c(c1)CCN2C1CCN(Cc2cccc3cc[nH]c23)C1)c1ccco1` (stereo not given), for which the pIC50 was 5.92.
The figure for `C=CCn1ccc2c3c(N)nc(N)nc3ccc21` is 7.15.
With `O=C(NCCc1ccc(Cl)c(Cl)c1)[C@@H]1CCCN1C(=O)c1ccc(O)c(-c2cccc(C(F)(F)F)c2)c1` the figure was 6.09; with `CCCN1CCN(CC(O)CNC(=O)Nc2ccc(Cl)cc2)CC1` (stereo not given), 7.00.
With `COc1ccc(C[C@H](N)C(=O)N[C@H]2[C@@H](O)[C@H](n3cnc4c(N(C)C)ncnc43)O[C@@H]2CO)cc1` the figure was 6.52; with `CCNc1cc(C)nc(Nc2ccc(NC(=O)Cc3ccc(OC)cc3)cc2)n1`, 5.86.
In turn, `Cc1cc(NC2CCN(CC3CCCCC3)CC2)nc(Nc2ccccc2Cl)n1` had a pIC50 of 6.19.
The figure for `CN(C)c1ccc(CN2CCC(CNC(=O)c3cc(-c4cccc(C(F)(F)F)c4)cs3)C2)cc1` (stereo not given) is 6.06.
With `CN1CCC(N2CCN(Cc3cccc(-c4ccc(-c5nc6ccc(F)cc6[nH]5)cc4)c3)CC2)CC1` the figure was 6.96; with `CCCOc1ccc(CNCCCCCCNCc2ccc(OCCC)c3ccccc23)c2ccccc12`, 6.39.
The figure for `NC(=O)c1cccc(C(=O)Nc2ccc(-c3cccc(-c4nc5ccc(C(F)(F)F)cc5[nH]4)c3)cc2)c1` is 6.46; for `c1ccc2c(c1)ncn2-c1ccnc(Nc2ccncc2)n1` it is 6.19.
In the case of `COc1cccc(OC2CCN(C(=O)c3cc(C(C)(C)C)nn3Cc3ccccc3)CC2)c1`, the pIC50 was 6.60.
The compound `O=C(NCC1CC1)C1CCN(C(c2ccc(Cl)cc2)c2ccc(Cl)cc2)CC1` had a pIC50 of 6.72.
With `Cc1nc(N)nc(N)c1OCCCCOc1ccccc1` the figure was 7.30; with `COc1ccc(CNC2Cc3ccccc3C2)cc1-c1ccc(OC)c(S(=O)(=O)NCCN2CCCC2)c1`, 6.11; with `CCOC(=O)c1ccc(NC(=O)Nc2cccc(-c3ccc(-c4nc5ccccc5[nH]4)cc3)c2)cc1`, 6.68.
With `Cc1[nH]c2ccccc2c1C1=CCN(CCCCCC23CCCc4cccc(c42)NC3=O)CC1` (stereo not given) the figure was 6.60; with `O=C(Nc1ccc(Oc2ccccc2)cc1)N[C@@H](Cc1ccc(O)cc1)C(=O)NC1CCN(Cc2ccc(O)c([N+](=O)[O-])c2)C1` (stereo not given in full), 5.82; with `COc1ccc(C(=O)Nc2ccc(Cl)cc2C(=O)Nc2ccncc2)cc1`, 6.09.
The figure for `Cc1ccc2nc(Nc3ccc(Nc4nc5ccc(C)cc5[nH]4)c(C)c3)[nH]c2c1` is 6.11; for `CCNc1cc(C(=O)N[C@@H](Cc2ccco2)[C@H](O)CNC2CCCCC2)cc(N2CCCCS2(=O)=O)c1` it is 6.00; for `COc1cc(C2CCN(CCCCNC(=O)c3ccc(NC(=O)c4ccc(Cl)c(Cl)c4)cc3)CC2)ccc1OC(C)C` it is 6.49.
With `O=C(Cc1cn(-c2ccccc2)nc1-c1ccc(Cl)cc1)Nc1nccs1`, the pIC50 was 5.92.
The figure for `NC1=NC2(CCCCC2)N(OCCCCCCN2C(=O)c3ccccc3C2=O)C(N)=N1` is 6.06; for `CC(C)C(C)(C#N)NC(=O)CSc1nc2ccc([N+](=O)[O-])cc2s1` (stereo not given) it is 5.99.
As to `CCCN(CCCCCCNCCc1ccc(Cl)cc1)CCc1ccc(O)c(O)c1`, the pIC50 is 6.03.
